Data as given in patent US20140057915A1, “KINASE INHIBITORS” (TOPIVERT PHARMA LIMITED, priority 2012, published 2014).

Assays:
HRV16 in MRC5 cells = assay: HRV16 induced CPE in MRC5 cells; assay type: cell-based; conditions: Human rhinovirus sp., HRV-16
Description: (j) Assessment of HRV16 Induced CPE in MRC5 Cells
MRC-5 cells are infected with HRV16 at an MOI of 1n DMEM containing 5% FCS and 1.5 mM magnesium chloride, followed by incubation for 1 hr at 33° C. to promote adsorption. The supernatants are aspirated, and then fresh media added followed by incubation for 4 days. Where appropriate, cells are pre-incubated with compound or DMSO for 2 hr, and the compounds and DMSO added again after washout of the virus.
After washing, 1% SDS in distilled water (100 μL) is added to each well, and the plates are shaken lightly for 1-2 hr prior to reading the absorbance at 660 nm. The percentage inhibition for each well is calculated. The IC50 value is calculated from the concentration-response curve generated by the serial dilutions of the test compounds.

Syk = Syk (Homo sapiens, UniProt P43405); assay: Syk enzyme inhibition (FRET); assay type: biochemical
Method in brief: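 2 hr RT enzyme + cpd (added solns 4/0.4/0.04/0.004 μg/mL); + FRET peptide (8 μM soln) + ATP soln (c-Src 800 μM, Syk 60 μM), 1 hr; protease development 1 hr; read donor/acceptor emission ratio.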

[1] = test system: ICAM-1 expression, BEAS2B cells; assay: Poly I:C-induced ICAM-1 expression in BEAS2B cells; assay type: cell-based; conditions: Homo sapiens, BEAS-2B; read-out: Poly IC induced ICAM1 in BEAS2B, IC50
Method in brief: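 Cell-based ELISA for surface ICAM-1 in human BEAS2B cells 18 h after transfection with the RNA-virus mimic poly I:C (1 μg/mL, with Oligofectamine), compounds added 2 h beforehand. OD450–655 divided by Crystal Violet OD595 per well; percent inhibition relative to vehicle.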

GSK3α = GSK3α (Homo sapiens, UniProt P49840); assay: GSK 3α enzyme inhibition (FRET), Method 1; assay type: biochemical; conditions: Table 4a1
Method in brief: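 Steps: preincubate GSK3α with compound 2 hr at room temperature; start reaction with peptide and ATP for 1 hr; develop with site-specific protease for 1 hr; measure fluorescence and take the coumarin/fluorescein ratio as the phosphorylation level.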

IFN gamma release, PBMCs = assay: IFN gamma release in CD3/CD28 stimulated PBMC cells; assay type: cell-based; conditions: Homo sapiens, read-out: IC50 Values for Inhibition of Cytokine Release, PBMCs, IFNγ
IL-8 release, HT29 cells = assay: IL-1β-induced IL-8 release in HT29 cells; assay type: cell-based; conditions: Homo sapiens, HT-29; IL-1β stimulated; read-out: IC50 Values for Inhibition of Cytokine Release, HT29 cells, IL-8
Description: (d) IL-1β-Induced IL-8 Release in HT29 Cells
HT29 cells, a human colon adenocarcinoma cell line, are plated in a 96 well plate (24 hrs) and pre-treated with compounds at the desired concentration for 2 hours before addition of 5 ng/ml of IL-1β (Abeam) for 24 hours, Supernatants are harvested for IL-8 quantification by Sandwich ELISA (Duo-set, R&D System). The IC50 is determined from the dose response curve.

[2] = Table 4a2, different laboratory

GSK3α, sequence (P49840 whole entry): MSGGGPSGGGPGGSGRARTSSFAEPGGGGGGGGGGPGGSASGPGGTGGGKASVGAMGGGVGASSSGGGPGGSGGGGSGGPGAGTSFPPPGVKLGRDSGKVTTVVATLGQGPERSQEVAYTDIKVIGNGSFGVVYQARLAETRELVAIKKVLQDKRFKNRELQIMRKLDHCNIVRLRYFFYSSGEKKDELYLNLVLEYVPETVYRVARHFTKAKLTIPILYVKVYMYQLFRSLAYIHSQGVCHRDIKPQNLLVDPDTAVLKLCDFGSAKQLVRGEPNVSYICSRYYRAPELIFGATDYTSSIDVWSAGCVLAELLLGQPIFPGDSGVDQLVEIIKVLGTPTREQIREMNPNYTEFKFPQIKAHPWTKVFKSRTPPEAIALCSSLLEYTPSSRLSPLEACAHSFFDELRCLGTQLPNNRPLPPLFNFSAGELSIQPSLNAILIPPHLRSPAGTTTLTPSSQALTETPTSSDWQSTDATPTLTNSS

| IC50 (Syk; Table 4a1) | IC50 (GSK3α) | IC50 (Syk; [2]) | IC50 (IL-8 release, HT29 cells) | SMILES | IC50 (HRV16 in MRC5 cells) | IC50 [1] | IC50 (IFN gamma release, PBMCs) |
| --- | --- | --- | --- | --- | --- | --- | --- |
| 32 nM | > 13300 nM |  |  | COc1cc(Nc2nccc(Oc3ccc(NC(=O)Nc4cc(C5CC5)nn4-c4ccc(C)cc4)c4ccccc34)n2)cc(C(=O)NCCN2CCOCC2)c1 [Example 50, 3-((4-((4-(3-(3-cyclopropyl-1-(p-tolyl)-1H-pyrazol-5-yl)ureido)naphthalen-1-yl)oxy)pyrimidin-2-yl)amino)-5-methoxy-N-(2-morpholinoethyl)benzamide] | 6.8 nM | 16.6 nM |  |
| 75 nM | > 14000 nM | 126 nM |  | COCCNC(=O)c1cc(Nc2nccc(Oc3ccc(NC(=O)Nc4cc(C(C)C)nn4-c4ccc(OC)cc4)c4ccccc34)n2)cc(OC)c1 [Example 11, 3-((4-((4-(3-(3-Isopropyl-1-(4-methoxyphenyl)-1H-pyrazol-5-yl)ureido)naphthalen-1-yl)oxy)pyrimidin-2-yl)amino)-5-methoxy-N-(2-methoxyethyl)benzamide] |  | 1.2 nM |  |
|  | > 12600 nM |  |  | Cc1ccc(-n2nc(C(C)C)cc2NC(=O)Nc2ccc(Oc3ccnc(Nc4cc(C(=O)NCCN5CCOCC5)cc(C(F)(F)F)c4)n3)c3ccccc23)cc1 [Example 7, 3-((4-((4-(3-(3-isopropyl-1-(p-tolyl)-1H-pyrazol-5-yl)ureido)naphthalen-1-yl)oxy)pyrimidin-2-yl)amino)-N-(2-morpholinoethyl)-5-(trifluoromethyl)benzamide] |  | 1.5 nM |  |
| 3 nM | > 13000 nM |  |  | COc1ccc(-n2nc(C(C)C)cc2NC(=O)Nc2ccc(Oc3ccnc(Nc4cc(OC)cc(C(=O)NCCN5CCOCC5)c4)n3)c3ccccc23)cc1 [Example 53, 3-((4-((4-(3-(3-isopropyl-1-(4-methoxyphenyl)-1H-pyrazol-5-yl)ureido)naphthalen-1-yl)oxy)pyrimidin-2-yl)amino)-5-methoxy-N-(2-morpholinoethyl)benzamide] | 2 nM | 4 nM |  |
|  | 8030 nM |  |  | COc1cc(Nc2nccc(Oc3ccc(NC(=O)Nc4cc(C(F)(F)C(F)(F)F)nn4-c4ccc(C)cc4)c4ccccc34)n2)cc(C(=O)NCCN2CCOCC2)c1 [Example 9] | 1.7 nM | 6.9 nM | 7.3 nM |
|  |  | 22 nM | 5.4 nM | C#Cc1cc(Nc2nccc(Oc3ccc(NC(=O)Nc4cc(C(C)C)nn4-c4ccc(C)cc4)c4ccccc34)n2)cc(C(=O)NCCN2CCOCC2)c1 [Example 46, 3-ethynyl-5-((4-((4-(3-(3-isopropyl-1-(p-tolyl)-1H-pyrazol-5-yl)ureido)naphthalen-1-yl)oxy)pyrimidin-2-yl)amino)-N-(2-morpholinoethyl)benzamide] |  |  | 2.7 nM |
|  |  | 25 nM | 6.2 nM | C#Cc1cc(Nc2nccc(Oc3ccc(NC(=O)Nc4cc(C(C)(C)C)nn4-c4ccc(N(C)C)cc4)c4ccccc34)n2)cc(C(=O)NCCN2CCOCC2)c1 [Example 80, 3-((4-((4-(3-(3-(tert-Butyl)-1-(4-(dimethylamino)phenyl)-1H-pyrazol-5-yl)ureido)naphthalen-1-yl)oxy)pyrimidin-2-yl)amino)-5-ethynyl-N-(2-morpholinoethyl)-benzamide] |  |  | 1.8 nM |
| 3 nM | 7950 nM | 224 nM | 4.1 nM | COc1cc(Nc2nccc(Oc3ccc(NC(=O)Nc4cc(C(C)C)nn4-c4ccc(C)cc4)c4ccccc34)n2)cc(C(=O)NCCN2CCOCC2)c1 [Example 8, 3-((4-((4-(3-(3-Isopropyl-1-(p-tolyl)-1H-pyrazol-5-yl)ureido)naphthalen-1-yl)oxy)pyrimidin-2-yl)amino)-5-methoxy-N-(2-morpholinoethyl)benzamide] | 5.4 nM | 1.1 nM |  |
| 10 nM | 2860 nM | 66 nM | 10.2 nM | COc1cc(Nc2cc(Oc3ccc(NC(=O)Nc4cc(C(C)(C)C)nn4-c4ccc(C)cc4)c4ccccc34)ccn2)cc(C(=O)NCCN2CCOCC2)c1 [Example 1, 3-((4-((4-(3-(3-(tert-Butyl)-1-(p-tolyl)-1H-pyrazol-5-yl)ureido)naphthalen-1-yl)oxy)pyridin-2-yl)amino)-5-methoxy-N-(2-morpholinoethyl)benzamide] | 2.9 nM | 3.4 nM | 3 nM |
| 203 nM | 2990 nM |  |  | COc1ccc(-n2nc(C3(C)COC3)cc2NC(=O)Nc2ccc(Oc3ccnc(Nc4cccc(C(=O)NCCN5CCOCC5)c4)n3)c3ccccc23)cc1 [Example 23, 3-((4-((4-(3-(1-(4-methoxyphenyl)-3-(3-methyloxetan-3-yl)-1H-pyrazol-5-yl)ureido)naphthalen-1-yl)oxy)pyrimidin-2-yl)amino)-N-(2-morpholinoethyl)benzamide] | 22.3 nM | 27.7 nM |  |
| 649 nM | > 13000 nM |  |  | COc1cc(Nc2nccc(Oc3ccc(NC(=O)Nc4cc(C5(C)CC5)nn4-c4ccc(C)cc4)c4ccccc34)n2)cc(C(=O)NCCN2CCOCC2)c1 [Example 51, 3-methoxy-5-((4-((4-(3-(3-(1-methylcyclopropyl)-1-(p-tolyl)-1H-pyrazol-5-yl)ureido)naphthalen-1-yl)oxy)pyrimidin-2-yl)amino)-N-(2-morpholinoethyl)benzamide] | 1.9 nM | 3.6 nM |  |
| 67 nM | > 1390 nM |  |  | COc1ccc(-n2nc(C(C)(C)C)cc2NC(=O)Nc2ccc(Oc3ccnc(Nc4cc(Br)cc(C(N)=O)c4)n3)c3ccccc23)cc1 [Example 42, 3-bromo-5-((4-((4-(3-(3-(tert-butyl)-1-(4-methoxyphenyl)-1H-pyrazol-5-yl)ureido)naphthalen-1-yl)oxy)pyrimidin-2-yl)amino)benzamide] | 2.2 nM | 2.3 nM |  |

| SMILES | IC50 (Syk; Table 4a1) | IC50 (GSK3α) | IC50 (Syk; [2]) | IC50 (IL-8 release, HT29 cells) | IC50 (HRV16 in MRC5 cells) | IC50 [1] | IC50 (IFN gamma release, PBMCs) |
| --- | --- | --- | --- | --- | --- | --- | --- |
| C#Cc1cc(Nc2nccc(Oc3ccc(NC(=O)Nc4cc(C(C)(C)C)nn4-c4ccc(OC)cc4)c4ccccc34)n2)cc(C(=O)NCCN2CCOCC2)c1 [Example 77, 3-((4-((4-(3-(3-(tert-Butyl)-1-(4-methoxyphenyl)-1H-pyrazol-5-yl)ureido)-naphthalen-1-yl)oxy)pyrimidin-2-yl)amino)-5-ethynyl-N-(2-morpholinoethyl)benzamide] |  |  | 18 nM | 2 nM |  |  | 0.8 nM |
